Blank lines part the entries; values can stand above or below the molecule they belong to. Peptide text beside a SMILES is read from it.
What was measured:
[1] = cited from earlier work; for Kd, apparent Sweetener/Receptor dissociation constant / Rm, Maximal Response: from R = Rm x C/(kd + C)
human taste testers [2] = experiment: Sensory flavor profile analysis, Example 3.1: KCl, MgCl2 or CaCl2 individually at <12 mM with REBA in Citric Acid Buffer (Table 7); format: in vivo; conditions: used individually at <12 mM
Description: (§1) Representative formulations within the scope of the disclosed formulations were prepared and subjected to sensory testing by the methods described above in the section entitled Testing Methodology, where formulations are rated on a 0-15 scales for the Taste Attributes: Sweetness Intensity (SI), Saltiness Intensity (SaI), Sourness Intensity (SoI), Bitterness Intensity (BI), Astringency Intensity (AI), Body/Mouthfeel Intensity (B/MF) and Sweetness Linger (SL). And, in addition, formulations are rated for the additional Taste Attributes of Sweetness Appearance Time (AT) and Sweetness Desensitization (SD). AT was rated by the verbal descriptors Rapid (R), Delay (D) or SD (Significant Delay) and SD was rated by the verbal descriptors None (N), Slight (S) or Medium (M). In sensory test sessions, the number of samples evaluated was limited to 6. In the initial phase of formulation screening, testing was carried out in triplicate with a single subject extensively experienced in the technique of flavor profile analysis. Following formulation screening, testing on promising formulations was carried out with a trained panel as described above. […]
This study assessed the effect of K^+, Mg^2+, and Ca^2+ (from KCl, MgCl2, and CaCl2 salts) used individually in a disclosed Taste Modulator Composition on the Appearance Time (AT), Sweetness Linger (SL), Body/Mouthfeel (B/MF) and Sweetness Desensitization (SD) of REBA in Citric Acid Buffer at moderate concentrations (i.e., <12 mM).

human taste testers [3] = experiment: Sensory flavor profile analysis, Example 3.2: KCl, MgCl2 or CaCl2 individually at 20 mM with REBA in Citric Acid Buffer (Table 8); format: in vivo; conditions: used individually at 20 mM
Description: as §1
This study assessed the effect of K^+, Mg^2+, and Ca^2+ (from KCl, MgCl2, and CaCl2 salts) used individually at 20 mM in a disclosed Taste Modulator Composition on the Appearance Time (AT), Sweetness Linger (SL), Body/Mouthfeel (B/MF) and Sweetness Desensitization (SD) of REBA in Citric Acid Buffer.

human taste testers [4] = experiment: Sensory flavor profile analysis, Example 3.3: KCl, MgCl2 or CaCl2 individually at 30 mM with REBA in Citric Acid Buffer (Table 9); format: in vivo; conditions: used individually at 30 mM
Description: as §1
This study assessed the effect of K^+, Mg^2+, and Ca^2+ (from KCl, MgCl2, and CaCl2 salts) used individually at 30 mM in a disclosed Taste Modulator Composition on the Appearance Time (AT), Sweetness Linger (SL), Body/Mouthfeel (B/MF) and Sweetness Desensitization (SD) of REBA in Citric Acid Buffer.

[5] = cited from earlier work; for sweetness potency: relative to sucrose; for sweetness potency (sensory evaluations): more potent than sucrose, Crammer and Ikan 1986
[6] = Concentration/Response (C/R) function of sweeteners; format: in vivo
Description: In discussion of mid-calorie beverages, it is useful to describe a suitable methodology for definition of the compositions of such caloric/non-caloric sweetener blends. One such system is a previously described Concentration/Response (C/R) function useful for many caloric as well as non-caloric sweeteners (see G. E. DuBois, et al., “A Systematic Study of Concentration-Response Relationships of Sweeteners”, In Sweeteners: Discovery, Molecular Design and Chemoreception, D E Walters, F Orthoefer and G E DuBois, Eds., ACS Symposium Series 450, ACS Books, Washington, D.C., 1990).
The following example serves to show how the C/R function can be utilized in design of a mid-caloric beverage. Assume that the objective is to formulate a 50% calorie-reduced beverage with a blend of sucrose and REBA, where the original full-calorie beverage contained 10.0% sucrose. Assuming there is no synergy between sucrose and REBA, such a blend would require 5.0% sucrose and a concentration of REBA equivalent to 5.0% sucrose in sweetness. The requisite concentration (C) of REBA is easily calculated from its C/R function R=10C/(200+C) as follows: 5.0=10×C/(200+C); and C=200 mg/L.

human taste testers [7] = experiment: Sensory Testing Methodology: Sweetness Linger of reference standards in water; format: in vivo; conditions: 10% Sucrose and 500 PPM REBA, perceived sweetness intensity @ 120 sec
Description: In various aspects, the present disclosure pertains to methods of testing the disclosed sweetener compositions, e.g., a sensory methodology or method for sweetener evaluation. In a particular aspect, the sensory methodology used is known as a “Flavor Profile Analysis” as has been previously described (see: B. T. Carr, S. D. Pecore, K. M. Gibes and G. E. DuBois, “Sensory Methods for Sweetener Evaluation”, Chapter 11 In Flavor Measurement, C. T. Ho and C. H. Manley, Eds., Marcel Dekker, New York, N.Y., 1993). The full set of sensory parameters that are assessed in the sensory testing method are: (a) Sweetness Intensity (which can be abbreviated in tables herein as “S”); (b) Sourness Intensity ((which can be abbreviated in tables herein as “So”); (c) Saltiness Intensity (which can be abbreviated in tables herein as “Sa”); (d) Bitterness Intensity (which can be abbreviated in tables herein as “B”); (e) Body/Mouthfeel Intensity (which can be abbreviated in tables herein as “B/MF”); (f) Astringency Intensity (which can be abbreviated in tables herein as “A”); (g) Sweetness Linger (which can be abbreviated in tables herein as “SL”); (h) Sweetness Appearance Time (which can be abbreviated in tables herein as “AT”); and (i) Sweetness Desensitization (which can be abbreviated in tables herein as “SD”). […]

[8] = Dissolution of solid REBD in CAB-K buffer, visual inspection; format: physicochemical; conditions: 500 PPM in pH 3.1 CAB-K; after standing overnight (about 20 h)

Molecule: CC1=CC(=O)[N-]S(=O)(=O)O1.[K+] [Acesulfame-K]
- Kd, apparent Sweetener/Receptor dissociation constant [1]: 470 µg/mL
- Rm, Maximal Response [1]: 11.6 Sucrose Equivalents of Sweetness

Molecule: COC(=O)[C@H](Cc1ccccc1)NC(=O)[C@@H](N)CC(=O)O [Aspartame] (H-Asp-Phe-OMe)
- Kd, apparent Sweetener/Receptor dissociation constant [1]: 560 µg/mL
- Rm, Maximal Response [1]: 16.0 Sucrose Equivalents of Sweetness

Molecule: [Ca+2].[Cl-].[Cl-] [Ca^2+, Calcium Chloride]
- effect on the AT, SL, B/MF and SD of REBA (human taste testers [2]): did not significantly affect
- effect on the AT, SL, B/MF and SD of REBA (human taste testers [3]): modestly affected
- effect on the AT, SL, B/MF and SD of REBA (human taste testers [4]): do affect

Molecule: C=C1C[C@@]23CC[C@H]4[C@@](C)(CCC[C@@]4(C)C(=O)O[C@@H]4O[C@H](CO)[C@@H](O)[C@H](O)[C@H]4O)[C@@H]2CC[C@]1(O[C@@H]1O[C@H](CO)[C@@H](O)[C@H](O)[C@H]1O[C@@H]1O[C@@H](C)[C@H](O)[C@@H](O)[C@H]1O)C3 [Dulcoside A]
- sweetness potency [5]: 30 times

Molecule: [Cl-].[K+] [K^+, Potassium Chloride]
- effect on the AT, SL, B/MF and SD of REBA (human taste testers [2]): did not significantly affect
- effect on the AT, SL, B/MF and SD of REBA (human taste testers [3]): modestly affected
- effect on the AT, SL, B/MF and SD of REBA (human taste testers [4]): do affect

Molecule: [Cl-].[Cl-].[Mg+2] [Mg^2+, Magnesium Chloride]
- effect on the AT, SL, B/MF and SD of REBA (human taste testers [2]): did not significantly affect
- effect on the AT, SL, B/MF and SD of REBA (human taste testers [3]): modestly affected
- effect on the AT, SL, B/MF and SD of REBA (human taste testers [4]): do affect

Molecule: C=C1C[C@@]23CC[C@H]4[C@@](C)(CCC[C@@]4(C)C(=O)O[C@@H]4O[C@H](CO)[C@@H](O)[C@H](O)[C@H]4O)[C@@H]2CC[C@]1(O[C@@H]1O[C@H](CO)[C@@H](O)[C@H](O[C@@H]2O[C@H](CO)[C@@H](O)[C@H](O)[C@H]2O)[C@H]1O[C@@H]1O[C@H](CO)[C@@H](O)[C@H](O)[C@H]1O)C3 [Rebaudioside A]
- sweetness intensity equivalent ([6]; 500 mg/L REBA, from C/R function R=10.0C/(200+C)): 7.14 % sucrose
- requisite concentration (C) equivalent to 5.0% sucrose in sweetness ([6]; calculated from C/R function R=10C/(200+C)): 200 mg/L
- SL (Sweetness Linger) (human taste testers [7]): 5
- sweetness potency (sensory evaluations) [5]: 350-450 times
- Kd, apparent Sweetener/Receptor dissociation constant [1]: 200 µg/mL
- Rm, Maximal Response [1]: 10 Sucrose Equivalents of Sweetness

- appearance of solution [8]: still cloudy
Molecule: C=C1C[C@@]23CC[C@H]4[C@@](C)(CCC[C@@]4(C)C(=O)O[C@@H]4O[C@H](CO)[C@@H](O)[C@H](O)[C@H]4O[C@@H]4O[C@H](CO)[C@@H](O)[C@H](O)[C@H]4O)[C@@H]2CC[C@]1(O[C@@H]1O[C@H](CO)[C@@H](O)[C@H](O[C@@H]2O[C@H](CO)[C@@H](O)[C@H](O)[C@H]2O)[C@H]1O[C@@H]1O[C@H](CO)[C@@H](O)[C@H](O)[C@H]1O)C3 [Rebaudioside D]

Molecule: C=C1C[C@@]23CC[C@H]4[C@@](C)(CCC[C@@]4(C)C(=O)O[C@@H]4O[C@H](CO)[C@@H](O)[C@H](O)[C@H]4O)[C@@H]2CC[C@]1(O[C@@H]1O[C@H](CO)[C@@H](O)[C@H](O)[C@H]1O[C@@H]1O[C@H](CO)[C@@H](O)[C@H](O)[C@H]1O)C3 [Stevioside]
- sweetness potency [5]: 110-270 times

Molecule: OC[C@H]1O[C@@](CO)(O[C@H]2O[C@H](CO)[C@@H](O)[C@H](O)[C@H]2O)[C@@H](O)[C@@H]1O [Sucrose, reference compound]
- C/R Function ([1]; R in Sucrose Equivalents of Sweetness, C in % (w/v) for sugars, in mg/L for HP sweeteners): R = C

Molecule: C[C@H](CC[C@@H](O[C@@H]1O[C@H](CO[C@@H]2O[C@H](CO)[C@@H](O)[C@H](O)[C@H]2O)[C@@H](O)[C@H](O)[C@H]1O[C@@H]1O[C@H](CO)[C@@H](O)[C@H](O)[C@H]1O)C(C)(C)O)[C@H]1CC[C@@]2(C)[C@@H]3CC=C4[C@@H](CC[C@H](O[C@@H]5O[C@H](CO[C@@H]6O[C@H](CO)[C@@H](O)[C@H](O)[C@H]6O)[C@@H](O)[C@H](O)[C@H]5O)C4(C)C)[C@]3(C)[C@H](O)C[C@]12C [mogroside V, mogro-3-O-[β-D-glucopyranosyl (1-6)-β-D-glucopyranoside]-24-O-{[β-D-glucopyranosyl(1-2)]-[?-D-glucopyranosyl(1-6)]-β-D-gluco-pyranoside}]
- sweetness ([5]; times cane sugar on a weight basis, estimated): approximately 250 times

Molecule: Rebaudioside B
- sweetness potency (sensory evaluations) [5]: 300-350 times

Molecule: Rebaudioside C
- sweetness potency [5]: 40-60 times

Source: patent US10602758B2, “Methods and compositions for improved taste quality” (Almendra Pte. Ltd, priority 2018, dated 2020)
